Reference: US20200399329A1, “ANTIMICROBIAL PEPTIDES” (priority 2015, published 2020)
In brackets after ≈: the same amount, converted by molar mass. Blank lines part the entries; values can stand above or below the compound they belong to. Where a SMILES comes first, the peptide text is derived from it. Bridges are numbered along the chain shown (N, C = ends). Where no end group is shown, it is not given here.

Key:
Proteinase-K = Proteinase-K (Parengyodontium album, UniProt P06873); assay: Proteinase-K (ProtK) proteolysis stability, Coommassie Blue stained gel; format: in vitro ADME; settings: 10 μg protein, 2 hours at 37° C.
Description: Proteinase-K (ProtK) was used to assess the stability of OMN6 versus native Cecropin A (CecA) and Bovine Serum Albumin (BSA) (See FIG. 1 A). 10 μg of each protein were incubated with increasing concentrations of between 5-20 ng of ProtK as specified, for 2 hours at 37° C. Samples were boiled at 100° C. for five minutes and separated on 15% acrylamide gel. The gel was then stained with Coommassie Blue and excess dye was removed over-night. […] In lane 2, the CecA band was weaker than the untreated sample band in lane 1. In lane 8, fragments of degraded BSA were detected, evidence of partial degradation.
The same experimental system as described above was used to assess the stability of OMN2, OMN7 and OMN11 against proteolytic degradation by ProtK (see FIG. 1B).

K. pneu NDM1 BAA-2473 = format: cell-based, Klebsiella pneumoniae
Description: (§1) In order to determine the MIC values of the peptides, growth and inhibition of various bacteria were monitored after treatment with the peptides of the invention (Table B). E. coli, K. pneumoniae, P. aeruginosa and Salmonella bacteria were cultured at 37° C. and at 5×10^6 CFU/ml in a standard 96-well-plate, in Mueller Hinton broth. […] The growth of the bacteria was continuously monitored via spectrophotometry at a wave-length of 625 nm. As bacterial growth progresses, Optical density at 625 nm (OD625 nm) values increase, and where the bacterial growth is inhibited, OD625 nm values remain constant. The experimental system and parameters described herein were used to determine the MIC values of OMN3, OMN5, OMN8 and OMN9 on various bacteria strains (Table B). Using the standard MHB MIC testing for antibiotic activity

E. coli CR BAA-2452 = format: cell-based, Escherichia coli
Description: as §1

E. coli ESBL BAA-198 = format: cell-based, Escherichia coli
Description: as §1

[1] = tested on: E. coli Sens. 25922 QC strain; format: cell-based, Escherichia coli
Description: as §1

E. coli strains = format: cell-based
Description: as §1

P. aeruginosa BAA-2795 = format: cell-based, Pseudomonas aeruginosa
Description: as §1

P. aeruginosa BAA-2110 [2] = format: cell-based, Pseudomonas aeruginosa
Description: (§2) In order to determine the MIC values of the peptides, growth and inhibition of various bacteria were monitored after treatment with the peptides of the invention (Table 6).
(§3) E. coli bacteria were cultured with or without OMN6 in increasing concentrations of 0.8-200 μM and with or without Fetal Bovine Serum 10% for 17-20 hours. The growth of the bacteria was continuously monitored via spectrophotometry at 600 nm. As bacterial growth progresses, OD600 nm values rise, and where the growth is inhibited OD600 nm values remain constant.
(§4) The experimental system and parameters described here were used to determine the MIC values of OMN2, OMN6, OMN7 and OMN11 on various bacteria strains (Table 7 and Table 8).

P. aeruginosa BAA-2110 [3] = format: cell-based, Pseudomonas aeruginosa; remark: listed apart in the source
Description: (§5) In order to determine the Minimal Bactericidal Concentration (MBC) values of the peptides, colony formation of various bacteria strains was monitored and determined after treatment with the peptides of the invention. Multi-Drug Resistant A. baumannii bacteria were cultured with or without OMN6 in increasing concentrations, as is detailed in FIG. 6 and Example 6. Immediately afterwards, samples of each experimental group were diluted to 1×10^4 to 1×10^6 as necessary, and further, the samples were plated on appropriate medium-agar plates. All the plates were incubated at 37° C. for 24-48 hours. Colonies were counted and CFU/ml in the original sample, prior to plating, were calculated and determined. An example of the plates, after incubation, is presented in FIG. 7 where the plate on the left side of the image is the CTRL sample treated with DDW and in the right side of the image increasing concentrations of OMN6 are presented, as specified therein.
(§6) The experimental system and parameters described here were used to determine the MBC values of OMN2, OMN6, OMN7 and OMN11 on various bacteria strains with and without the supplementation of 10% FBS (Table 6 and Table 8).

E. coli Sens. 25922 [4] = format: cell-based, Escherichia coli
Description: as §5, §6

E. coli Sens. 25922 [5] = format: cell-based, Escherichia coli; settings: Sens. 25922
Description: as §2, §3, §4

Sequence of Proteinase-K (P06873 106-384, species assumed): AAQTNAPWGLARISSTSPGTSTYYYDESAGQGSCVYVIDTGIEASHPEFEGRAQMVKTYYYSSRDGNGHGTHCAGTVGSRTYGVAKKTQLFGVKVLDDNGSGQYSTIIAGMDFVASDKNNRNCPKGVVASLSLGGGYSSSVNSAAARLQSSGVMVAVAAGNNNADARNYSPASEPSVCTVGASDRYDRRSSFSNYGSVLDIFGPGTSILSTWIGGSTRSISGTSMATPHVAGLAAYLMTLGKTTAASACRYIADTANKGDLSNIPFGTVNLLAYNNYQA

Compound: KWKLFKKIEKVGQNIRDGIIKAGPAVAVVGQATQIAK-NH2 (C-terminus assumed) [CecA, reference compound]
Degradation by ProtK (gel band) (Proteinase-K; 5 ng ProtK): partially degrade | Degradation by ProtK (gel band) (Proteinase-K; 20 ng ProtK): completely degrade

Compound: CC[C@H](C)[C@@H]1NC(=O)[C@H](C)NC(=O)[C@H](CC(=O)O)NC(=O)[C@H](CCCNC(=N)N)NC(=O)[C@H](C(C)C)NC(=O)[C@H](CCCNC(=N)N)NC(=O)[C@H](CCC(N)=O)NC(=O)CNC(=O)[C@H](C)NC(=O)[C@H](CCCNC(=N)N)NC(=O)[C@H](CCC(=O)O)NC(=O)[C@H](CC(C)C)NC(=O)[C@H](CCC(=O)O)NC(=O)[C@H](CCCCN)NC(=O)[C@H](Cc2ccccc2)NC(=O)[C@@H]2CCCN2C(=O)[C@H](CC(N)=O)NC(=O)[C@H](Cc2c[nH]c3ccccc23)NC(=O)[C@@H](NC(=O)[C@@H](N)CCSC)CSSC[C@@H](C(=O)O)NC(=O)[C@H](CCCCN)NC(=O)[C@H](C)NC(=O)[C@H](CC(C)C)NC(=O)[C@H](C)NC(=O)[C@H]([C@@H](C)O)NC(=O)[C@H](C)NC(=O)[C@H](CCC(N)=O)NC(=O)[C@H](C)NC(=O)[C@H](C(C)C)NC(=O)[C@H]([C@@H](C)O)NC(=O)[C@H](C)NC(=O)[C@H](C(C)C)NC(=O)[C@H](C)NC(=O)[C@@H]2CCCN2C(=O)CNC(=O)[C@H](C)NC(=O)[C@H](CO)NC(=O)[C@H]([C@@H](C)CC)NC1=O [OMN5] (H-MCWNPFKELERAGQRVRDAIISAGPAVATVAQATALAKC-OH; disulfide 2-39; N-terminus and C-terminus assumed)
MIC for E. coli strains (E. coli strains): above 256 μg/mL | MIC (P. aeruginosa BAA-2795): 256 µg/mL (≈ 61.8 µM)

Compound: CC[C@H](C)[C@@H]1NC(=O)[C@H](C)NC(=O)[C@H](C)NC(=O)[C@H](C)NC(=O)[C@H](CCC(N)=O)NC(=O)CNC(=O)[C@H](C(C)C)NC(=O)[C@H]([C@@H](C)O)NC(=O)[C@H](C)NC(=O)[C@H](C(C)C)NC(=O)[C@H](C)NC(=O)[C@@H]2CCCN2C(=O)[C@H](C)NC(=O)[C@H](C)NC(=O)[C@H](CO)NC(=O)[C@H]([C@@H](C)O)NC(=O)[C@H](C(C)C)NC(=O)[C@H](C)NC(=O)[C@H](CC(=O)O)NC(=O)[C@H](CCCNC(=N)N)NC(=O)[C@H](C(C)C)NC(=O)[C@H](CCCNC(=N)N)NC(=O)[C@H](CCC(N)=O)NC(=O)CNC(=O)[C@H](C)NC(=O)[C@H](CCCNC(=N)N)NC(=O)[C@H](CCC(=O)O)NC(=O)[C@H](CC(C)C)NC(=O)[C@H](CCC(=O)O)NC(=O)[C@H](CCCCN)NC(=O)[C@H](Cc2ccccc2)NC(=O)[C@@H]2CCCN2C(=O)[C@H](CC(N)=O)NC(=O)[C@H](Cc2c[nH]c3ccccc23)NC(=O)[C@@H](NC(=O)[C@@H](N)CCSC)CSSC[C@@H](C(=O)O)NC(=O)[C@H](CCCNC(=N)N)NC(=O)[C@H](C)NC1=O [OMN3] (H-MCWNPFKELERAGQRVRDAVTSAAPAVATVGQAAAIARC-OH; disulfide 2-39; N-terminus and C-terminus assumed)
MIC for E. coli strains (E. coli strains): above 256 μg/mL | MIC (P. aeruginosa BAA-2795): 256 µg/mL (≈ 62.2 µM)

Compound: Bovine Serum Albumin [BSA, reference compound]
Degradation by ProtK (gel band) (Proteinase-K; 5 ng ProtK): partially degrade | Degradation by ProtK (gel band) (Proteinase-K; 20 ng ProtK): completely degrade

Compound: CC[C@H](C)[C@H](NC(=O)CNC(=O)[C@H](CC(=O)O)NC(=O)[C@H](CCCNC(=N)N)NC(=O)[C@@H](NC(=O)[C@H](CC(N)=O)NC(=O)[C@H](CCC(N)=O)NC(=O)CNC(=O)[C@@H](NC(=O)[C@H](CCCCN)NC(=O)[C@H](CCC(=O)O)NC(=O)[C@@H](NC(=O)[C@H](CCCCN)NC(=O)[C@H](CCCCN)NC(=O)[C@H](Cc1ccccc1)NC(=O)[C@@H](NC(=O)[C@H](CCCCN)NC(=O)[C@H](Cc1c[nH]c2ccccc12)NC(=O)[C@H](CCCNC(=N)N)NC(=O)[C@H](CS)NC(=O)[C@@H](N)CCSC)[C@@H](C)CC)[C@@H](C)CC)C(C)C)[C@@H](C)CC)C(=O)N[C@H](C(=O)N[C@@H](CCCCN)C(=O)N[C@@H](C)C(=O)NCC(=O)N1CCC[C@H]1C(=O)N[C@@H](C)C(=O)N[C@H](C(=O)N[C@@H](C)C(=O)N[C@H](C(=O)N[C@H](C(=O)NCC(=O)N[C@@H](CCC(N)=O)C(=O)N[C@@H](C)C(=O)N[C@@H](C)C(=O)N[C@H](C(=O)N[C@H](C(=O)N[C@@H](CS)C(N)=O)[C@@H](C)CC)[C@@H](C)O)C(C)C)C(C)C)C(C)C)C(C)C [OMN7] (H-MCRWKIFKKIEKVGQNIRDGIVKAGPAVAVVGQAATIC-NH2; N-terminus and C-terminus assumed)
MIC (P. aeruginosa BAA-2110 [2]): 50 µM (≈ 205 µg/mL) | MBC (P. aeruginosa BAA-2110 [3]): 50 µM (≈ 205 µg/mL)

Second part, led by results:

MIC (K. pneu NDM1 BAA-2473): 64 µg/mL (≈ 15.3 µM) | MIC (E. coli CR BAA-2452): 32 µg/mL (≈ 7.67 µM) | MIC (E. coli ESBL BAA-198): 16 µg/mL (≈ 3.83 µM) | MIC [1]: 32 µg/mL (≈ 7.67 µM) | MIC for E. coli strains (E. coli strains): 16 to 32 µg/mL
Compound: CC[C@H](C)[C@@H]1NC(=O)CNC(=O)[C@H](CC(=O)O)NC(=O)[C@H](CCCNC(=N)N)NC(=O)[C@H]([C@@H](C)CC)NC(=O)[C@H](CC(N)=O)NC(=O)[C@H](CCCNC(=N)N)NC(=O)CNC(=O)[C@H](CCSC)NC(=O)[C@H](CCCCN)NC(=O)[C@H](CCC(=O)O)NC(=O)[C@H]([C@@H](C)CC)NC(=O)[C@H](CCCCN)NC(=O)[C@H](CCCCN)NC(=O)[C@H](Cc2ccccc2)NC(=O)[C@H]([C@@H](C)CC)NC(=O)[C@H](CCCCN)NC(=O)[C@H](Cc2c[nH]c3ccccc23)NC(=O)[C@H](CCCNC(=N)N)NC(=O)[C@@H](NC(=O)[C@@H](N)CCSC)CSSC[C@@H](C(=O)O)NC(=O)[C@H]([C@@H](C)CC)NC(=O)[C@H](C)NC(=O)[C@H](CCCCN)NC(=O)[C@H](C)NC(=O)[C@H](CO)NC(=O)CNC(=O)[C@H](CC(C)C)NC(=O)[C@H](C(C)C)NC(=O)[C@H](CCC(=O)O)NC(=O)[C@H]([C@@H](C)CC)NC(=O)[C@H](C)NC(=O)[C@@H]2CCCN2C(=O)CNC(=O)[C@H](C)NC(=O)[C@H](C)NC(=O)[C@H](C(C)C)NC1=O [OMN8] (H-MCRWKIFKKIEKMGRNIRDGIVAAGPAIEVLGSAKAIC-OH; disulfide 2-38; N-terminus and C-terminus assumed)

MIC (P. aeruginosa BAA-2110 [2]): 40 µM (≈ 147 µg/mL) | MIC (E. coli Sens. 25922 [5]): 25 µM (≈ 91.9 µg/mL)
Compound: CC[C@H](C)[C@H](NC(=O)CNC(=O)[C@H](CCC(=O)O)NC(=O)[C@H](CO)NC(=O)[C@@H](NC(=O)[C@H](CCCNC(=N)N)NC(=O)[C@H](CCCCN)NC(=O)[C@H](CCCCN)NC(=O)[C@H](C)NC(=O)[C@H](CO)NC(=O)[C@H](CC(N)=O)NC(=O)[C@H](CCC(=O)O)NC(=O)[C@H](CC(C)C)NC(=O)[C@H](CCCCN)NC(=O)[C@H](CCCCN)NC(=O)[C@H](C)NC(=O)[C@@H](NC(=O)[C@H](CCCCN)NC(=O)[C@H](CO)NC(=O)[C@H](CC(C)C)NC(=O)[C@H](Cc1c[nH]c2ccccc12)NC(=O)[C@H](CO)NC(=O)[C@H](CS)NC(=O)[C@@H](N)CCSC)[C@@H](C)O)[C@@H](C)CC)C(=O)N[C@@H](C)C(=O)N[C@H](C(=O)N[C@@H](C)C(=O)N[C@H](C(=O)N[C@@H](CCC(N)=O)C(=O)NCC(=O)NCC(=O)N1CCC[C@H]1C(=O)N[C@@H](CCCNC(=N)N)C(=O)N[C@@H](CS)C(N)=O)[C@@H](C)CC)[C@@H](C)CC [OMN11] (H-MCSWLSKTAKKLENSAKKRISEGIAIAIQGGPRC-NH2; N-terminus and C-terminus assumed)
MBC (E. coli Sens. 25922 [4]): 25 µM (≈ 91.9 µg/mL) | MBC (P. aeruginosa BAA-2110 [3]): 40 µM (≈ 147 µg/mL)
